From patent publication US9458154B2, “Kinase inhibitors” (Chiesi Farmaceutici S.p.A., priority 2011, dated 2016) come the findings set out here.

Where a name gives a salt, the structure may show the parent alone.

For the assay, the target named is T1, p38alpha (Homo sapiens, UniProt Q16539).
T1 construct: purchased Invitrogen PV3304
T1 sequence (Q16539 whole entry): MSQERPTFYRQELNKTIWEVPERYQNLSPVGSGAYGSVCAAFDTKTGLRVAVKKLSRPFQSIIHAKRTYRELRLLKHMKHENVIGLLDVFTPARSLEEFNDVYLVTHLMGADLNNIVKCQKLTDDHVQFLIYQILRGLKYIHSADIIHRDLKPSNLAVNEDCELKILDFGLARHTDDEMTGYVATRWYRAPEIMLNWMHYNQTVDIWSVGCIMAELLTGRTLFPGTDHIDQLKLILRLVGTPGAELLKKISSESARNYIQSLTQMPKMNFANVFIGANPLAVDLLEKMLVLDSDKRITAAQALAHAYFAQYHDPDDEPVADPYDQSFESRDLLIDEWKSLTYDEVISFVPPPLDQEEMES
The assay can be described thus: P38alpha Enzyme Inhibition Assay (Alphascreen kinase activity assay). To be noted: 100 pM p38alpha, ATF-2 fusion protein substrate, 250 μM ATP, 2 hours preincubation at 25° C.; read-out: p38α inhibition. It counts as biochemical. The protocol:
P38alpha Enzyme Inhibition Assay
The inhibitory activity of compounds was determined using an Alphascreen® (Perkin Elmer) based kinase activity assay. Kinase reactions consisted of 25 mM HEPES pH 7.5, 10 mM MgCl2, 100 μM Na3VO4, 2 mM DTT, 0.05 mg/ml Tween 20, 100 pM p38alpha (Invitrogen, PV3304), 1% DMSO and 0.3 μg/ml ATF-2 fusion protein (New England Biolabs, 9224). Compounds were incubated under these conditions for 2 hours, at 25° C., prior to the initiation of the kinase activity by the addition of the 250 μM ATP. Reaction volumes were 20 uL. After 1 hr at 25° C. reactions were stopped by the adding 10 uL of 25 mM HEPES pH 7.5 containing 62.5 mM EDTA, 0.05% Triton X-100, 10% BSA and 0.83 ng/uL anti-phospho-ATF2 antibody (Abcam, ab28812). Detection was performed by measuring luminescence following the addition of Alphascreen Donor beads (Perkin Elmer 6765300) and Protein A Alphascreen Acceptor beads (Perkin Elmer 6760137), both at a final concentration of 20 ug/ml. IC50 values were determined from concentration-response curves.
(Alpha assays give light when donor and acceptor beads are brought close together.)
On to `Cc1ccc(-n2nc(C(C)(C)C)cc2NC(=O)N[C@H]2CC[C@@H](Oc3ccc4nnc(-c5ccccc5OCc5ccccc5)n4c3)c3ccccc32)cc1` [Example 24, 1-{(1S,4R)-4-[3-(2-Benzyloxy-phenyl)-[1,2,4]triazolo[4,3-a]pyridin-6-yloxy)-1,2,3,4-tetrahydro-naphthalen-1-yl}-3-(5-tert-butyl-2-p-tolyl-2H-pyrazol-3-yl)-urea], for which the IC50 was below 0.01 µM. Regarding `Cc1ccc(-n2nc(C(C)(C)C)cc2NC(=O)N[C@H]2CC[C@@H](Oc3ccn4c(C(C)C)nnc4c3)c3ccccc32)cc1` [Example 5, 1-(5-tert-Butyl-2-p-tolyl-2H-pyrazol-3-yl)-3-[(1S,4R)-4-(3-isopropyl-[1,2,4]triazolo[4,3-a]pyridin-7-yloxy)-1,2,3,4-tetrahydro-naphthalen-1-yl]-urea], the IC50 was below 0.01 µM.

For `CC(C)c1nnc2ccc(O[C@@H]3CC[C@H](NC(=O)Nc4cc(C(C)(C)C)nn4-c4cccc(OCCN(C)C)c4)c4ccccc43)cn12` [Example 11, 1-{5-tert-Butyl-2-[3-(2-dimethylamino-ethoxy)-phenyl]-2H-pyrazol-3-yl}-3-[(1S,4R)-4-(3-isopropyl-[1,2,4]triazolo[4,3-a]pyridin-6-yloxy)-1,2,3,4-tetrahydro-naphthalen-1-yl]-urea], the IC50 was below 0.01 µM. On to `Cc1ccc(-n2nc(C(C)(C)C)cc2NC(=O)N[C@H]2CC[C@@H](Oc3ccc4nnc(C5CC5)n4c3)c3ccccc32)cc1` [Example 21, 1-(5-tert-Butyl-2-p-tolyl-2H-pyrazol-3-yl)-3-[(1S,4R)-4-(3-cyclopropyl-[1,2,4]triazolo[4,3-a]pyridin-6-yloxy)-1,2,3,4-tetrahydro-naphthalen-1-yl}-urea], for which the IC50 was below 0.01 µM. Then `Cc1ccc(-n2nc(C(C)(C)C)cc2NC(=O)N[C@H]2CC[C@@H](Oc3ccc4nnc(C5CCCCC5)n4c3)c3ccccc32)cc1` [Example 26, 1-(5-tert-Butyl-2-p-tolyl-2H-pyrazol-3-yl)-3-[(1S,4R)-4-(3-cyclohexyl-[1,2,4]triazolo[4,3-a]pyridin-6-yloxy)-1,2,3,4-tetrahydro-naphthalen-1-yl]-urea], with below 0.01 µM; and `CC(C)c1nnc2ccc(O[C@H]3CC[C@H](NC(=O)NC4CC4)c4ccccc43)cn12` [Example 2, 1-Cyclopropyl-3-[(1S,4S)-4-(3-isopropyl-[1,2,4]triazolo[4,3-a]pyridin-6-yloxy)-1,2,3,4-tetrahydro-naphthalen-1-yl]-urea], with below 0.01 µM; and `CC(C)c1nnc2ccc(O[C@@H]3CC[C@H](NC(=O)Nc4cc(C(C)(C)C)nn4-c4ccc(O)cc4)c4ccccc43)cn12` [Example 15, 1-[5-tert-Butyl-2-(4-hydroxy-phenyl)-2H-pyrazol-3-yl]-3-[(1S,4R)-4-(3-isopropyl-[1,2,4]triazolo[4,3-a]pyridin-6-yloxy)-1,2,3,4-tetrahydro-naphthalen-1-yl]-urea], with below 0.01 µM. Then `CC(C)c1nnc2ccc(O[C@@H]3CC[C@H](NC(=O)Nc4cc(C(C)(C)C)on4)c4ccccc43)cn12` [Example 17, 1-(5-tert-Butyl-isoxazol-3-yl)-3-[(1S,4R)-4-(3-isopropyl-[1,2,4]triazolo[4,3-a]pyridin-6-yloxy)-1,2,3,4-tetrahydro-naphthalen-1-yl]-urea], with below 0.01 µM; and `Cc1ccc(-n2nc(C(C)(C)C)cc2NC(=O)N[C@H]2CC[C@@H](Oc3ccc4nnc(C(C)(C)C)n4c3)c3ccccc32)cc1` [Example 16, 1-(5-tert-Butyl-2-p-tolyl-2H-pyrazol-3-yl)-3-[(1S,4R)-4-(3-tert-butyl-[1,2,4]triazolo[4,3-a]pyridin-6-yloxy)-1,2,3,4-tetrahydro-naphthalen-1-yl]-urea], with below 0.01 µM.

With `Cc1ccc(-n2nc(C(C)(C)C)cc2NC(=O)N[C@H]2CC[C@@H](Oc3ccc4nnc(-c5ccccc5Cl)n4c3)c3ccccc32)cc1` [Example 23], the IC50 was below 0.01 µM.

As for `CC(C)c1nnc2ccc(O[C@@H]3CC[C@H](NC(=O)Nc4cc(C(C)(C)C)nn4-c4ccc(Cl)c(O)c4)c4ccccc43)cn12` [Example 14, 1-(5-tert-Butyl-2-(4-chloro-3-hydroxyphenyl)-2H-pyrazol-3-yl)-3-[(1S,4R)-4-(3-isopropyl-[1,2,4]triazolo[4,3-a]pyridin-6-yloxy)-1,2,3,4-tetrahydronaphthalen-1-yl]-urea], the IC50 was below 0.01 µM. With `CC(C)c1nnc2ccc(O[C@@H]3CC[C@H](NC(=O)Nc4cc(C(C)(C)C)nn4-c4cccc(CN5CCOCC5)c4)c4ccccc43)cn12` [Example 19, 1-[5-tert-Butyl-2-(3-morpholin-4-ylmethyl-phenyl)-2H-pyrazol-3-yl]-3-[(1S,4R)-4-(3-isopropyl-[1,2,4]triazolo[4,3-a]pyridin-6-yloxy)-1,2,3,4-tetrahydro-naphthalen-1-yl]-urea, formic acid salt] the figure was below 0.01 µM; with `Cc1ccc(-n2nc(C(C)(C)C)cc2NC(=O)N[C@@H]2C[C@@H](Sc3ccc4nnc(C(C)C)n4c3)c3ccccc32)cc1` (racemic) [Example 3, (±)-trans-1-(5-tert-Butyl-2-p-tolyl-2H-pyrazol-3-yl)-3-[3-(3-isopropyl-[1,2,4]triazolo[4,3-a]pyridin-6-ylsulfanyl)-indan-1-yl]-urea], below 0.01 µM; with `Cc1ccc(-n2nc(C(C)(C)C)cc2NC(=O)N[C@H]2CC[C@@H](Oc3ccc4nnc(-c5ccccc5O)n4c3)c3ccccc32)cc1` [Example 7, 1-(5-tert-Butyl-2-p-tolyl-2H-pyrazol-3-yl)-3-{(1S,4R)-4-(3-(2-hydroxy-phenyl)-[1,2,4]triazolo[4,3-a]pyridin-6-yloxy)-1,2,3,4-tetrahydro-naphthalen-1-yl}-urea], below 0.01 µM. Then `CC(C)c1nnc2ccc(O[C@H]3C[C@H](NC(=O)Nc4cc(C(C)(C)C)on4)c4ccccc43)cn12` [Example 8, 1-(5-tert-Butyl-isoxazol-3-yl)-3-[(1S,3S)-3-(3-isopropyl-[1,2,4]triazolo[4,3-a]pyridin-6-yloxy)-indan-1-yl]-urea], with below 0.01 µM; and `Cc1ccc(-n2nc(C(C)(C)C)cc2NC(=O)N[C@H]2CC[C@@H](Oc3ccc4nnc(-c5c(Cl)cccc5Cl)n4c3)c3ccccc32)cc1` [Example 20], with below 0.01 µM. Then `COCC(=O)Nc1cc(CO[C@@H]2CC[C@H](NC(=O)Nc3cc(C(C)(C)C)nn3-c3ccc(C)cc3)c3ccccc32)ccn1` [Example 9, N-(4-{(1R,4S)-4-[3-(5-tert-Butyl-2-p-tolyl-2H-pyrazol-3-yl)-ureido]-1,2,3,4-tetrahydro-naphthalen-1-yloxymethyl}-pyridin-2-yl)-2-methoxy-acetamide], with below 0.01 µM; and `CC(C)c1nnc2ccc(O[C@@H]3CC[C@H](NC(=O)Nc4cc(C(C)(C)C)nn4-c4cccc(OCCN5CCOCC5)c4)c4ccccc43)cn12` [Example 6, 1-{5-tert-Butyl-2-[3-(2-morpholin-4-yl-ethoxy)-phenyl]-2H-pyrazol-3-yl}-3-[(1S,4R)-4-(3-isopropyl-[1,2,4]triazolo[4,3-a]pyridin-6-yloxy)-1,2,3,4-tetrahydro-naphthalen-1-yl]-urea], with below 0.01 µM; and `CC(C)c1nnc2ccc(O[C@H]3CC[C@H](NC(=O)Nc4cc(C(C)(C)C)nn4-c4ccc(O)c(Cl)c4)c4ccccc43)cn12` [Example 25, 1-[5-tert-Butyl-2-(3-chloro-4-hydroxy-phenyl)-2H-pyrazol-3-yl]-3-[(1S,4S)-4-(3-isopropyl-[1,2,4]triazolo[4,3-a]pyridin-6-yloxy)-1,2,3,4-tetrahydro-naphthalen-1-yl]-urea], with below 0.01 µM. Turning to `Cc1ccc(-n2nc(C(C)(C)C)cc2NC(=O)N[C@H]2CC[C@@H](Oc3ccc4nnc(-c5ccccn5)n4c3)c3ccccc32)cc1` [Example 22, 1-(5-tert-Butyl-2-p-tolyl-2H-pyrazol-3-yl)-3-[(1S,4R)-4-(3-pyridin-2-yl-[1,2,4]triazolo[4,3-a]pyridin-6-yloxy)-1,2,3,4-tetrahydro-naphthalen-1-yl}-urea], the IC50 was below 0.01 µM. Then `CC(C)c1nnc2ccc(O[C@@H]3CC[C@H](NC(=O)Nc4cc(C(C)(C)C)nn4-c4ccccc4)c4ccccc43)cn12` [Example 1, 1-(5-tert-Butyl-2-phenyl-2H-pyrazol-3-yl)-3-[(1S,4R)-4-(3-isopropyl-[1,2,4]triazolo[4,3-a]pyridin-6-yloxy)-1,2,3,4-tetrahydro-naphthalen-1-yl]-urea], with below 0.01 µM. With `Cc1ccc(-n2nc(C(C)(C)C)cc2NC(=O)N[C@H]2CC[C@@H](Oc3ccc4nnc(-c5ccccc5SCCO)n4c3)c3ccccc32)cc1` [Example 10] the figure was below 0.01 µM; with `Cc1ccc(-n2nc(C(C)(C)C)cc2NC(=O)N[C@H]2CC[C@@H](Oc3ccc4nnc(C5CCCC5)n4c3)c3ccccc32)cc1` [Example 18, 1-(5-tert-Butyl-2-p-tolyl-2H-pyrazol-3-yl)-3-[(1S,4R)-4-(3-cyclopentyl-[1,2,4]triazolo[4,3-a]pyridin-6-yloxy)-1,2,3,4-tetrahydro-naphthalen-1-yl]-urea], below 0.01 µM. With `COc1c(NC(=O)N[C@H]2CC[C@@H](Oc3ccc4nnc(C(C)C)n4c3)c3ccccc32)cc(C(C)(C)C)cc1NS(C)(=O)=O` [Example 28, N-(5-tert-Butyl-3-{3-[(1S,4R)-4-(3-isopropyl-[1,2,4]triazolo[4,3-a]pyridin-6-yloxy)-1,2,3,4-tetrahydro-naphthalen-1-yl]-ureido}-2-methoxy-phenyl)-methanesulfonamide] the figure was below 0.01 µM.
